Patent US20170253607A1, “LONG-ACTING HIV PROTEASE INHIBITOR” (Shionogi & Co., Ltd., priority 2014, published 2017)

What was measured:
[1] = Protein binding test (equilibrium dialysis, unbound ratio fu in serum); assay type: in vitro ADME; details: rat serum, equilibrium dialysis 24 hours, 37° C., 2 μg/mL
Summary of the method: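 Compound at 2 μg/mL in serum was dialysed against PBS for 24 hours at 37° C. Both sides were quantified by LC/MS/MS, and fu was taken as the PBS concentration divided by the serum concentration.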

[2] = Evaluation of total body clearance (CLtot), intravenous administration; assay type: in vivo, Sprague-Dawley (SD); details: rat (SD), intravenous administration 0.5-10 mg/kg; CLtot = dose/AUC
Summary of the method: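 Compounds given as a single tail-vein injection at 0.5-10 mg/kg (n=2-3), dose varying by compound. Plasma sampled at scheduled times and measured by LC/MS/MS; CLtot derived as dose divided by AUC from pharmacokinetic analysis.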

HIV-1 PR = HIV-1 PR (Human immunodeficiency virus type 1 group M subtype B, UniProt P04585); experiment: HIV-protease inhibitory activity assay (FRET peptide substrate); assay type: biochemical; details: Test Example 1
Summary of the method: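 Fluorescence recovery at ex 485/em 535 nm reports cleavage of a quenched FRET peptide (2 μmol/L final) by 0.83 ng enzyme over 60 minutes at room temperature. Buffer was NaAc pH 4.8 with NaCl, EDTA, DTT and Tween 20. IC50 values came from four-parameter logistic regression of % inhibition.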

| SMILES | rat_fu [1] | rat_CLt [2] | IC50 (HIV-1 PR) |
| --- | --- | --- | --- |
| COc1ccc(S(=O)(=O)N(CC(C)C)CC(O)C(Cc2ccc(N(Cc3ccccc3)Cc3sc4c(c3C(=O)O)CC(C)(C)CC4)cc2)NC(=O)OC2COC3(C)OCCC23)cc1 (stereo not drawn) [Compound I-47] | <0.1% | 3.51 mL/min/kg | 5.41 nM |
| COc1ccc(S(=O)(=O)N(CC(C)C)CC(O)C(Cc2ccc(NCc3cc(F)ccc3-c3sc4c(c3C(=O)O)CC(C)(C)CC4)cc2)NC(=O)OC2COC3(C)OCCC23)cc1 (stereo not drawn) [Compound I-271] | <0.1% | 2.42 mL/min/kg | 2.23 nM |
| COc1ccc(S(=O)(=O)N(CC(C)C)CC(O)C(Cc2ccc(OCc3ccccc3-c3ncc4c(c3C(=O)O)CCC(C)(C)C4)cc2)NC(=O)OC2COC3(C)OCCC23)cc1 (stereo not drawn) [Compound I-197] | <0.1% | 3.81 mL/min/kg | 1.94 nM |
| COc1ccc(S(=O)(=O)N(CC(C)C)CC(O)C(Cc2ccc(NC3Cc4cccc(-c5sc6c(c5C(=O)O)CC(C)(C)CC6)c4C3)cc2)NC(=O)OC2COC3(C)OCCC23)cc1 (stereo not drawn) [Compound I-241] | <0.1% | 0.404 mL/min/kg | 2.95 nM |
| COc1ccc(S(=O)(=O)N(CC(C)C)CC(O)C(Cc2ccc(N(C)Cc3ccccc3-n3nc4c(c3C(=O)O)CC(C)(C)CC4)cc2)NC(=O)OC2COC3(C)OCCC23)cc1 (stereo not drawn) [Compound I-349] | <0.1% | 0.71 mL/min/kg | 2.33 nM |
| CC(C)CN(CC(O)C(Cc1ccc(OCCNC(=O)c2cc(Cl)cc(Cl)c2O)cc1)NC(=O)OC1COC2(C)OCCC12)S(=O)(=O)c1ccc2c(c1)OCO2 (stereo not drawn) [Compound I-168] | <0.1% | 5.68 mL/min/kg | 1.83 nM |
| COc1ccc(S(=O)(=O)N(CC(C)C)C[C@@H](O)[C@H](Cc2ccc(CCc3sc4c(c3C(=O)O)CC(C)(C)CC4)cc2)NC(=O)O[C@H]2CO[C@@]3(C)OCC[C@@H]23)cc1 [Compound I-12] | <0.1% | 2.9 mL/min/kg | 1.82 nM |
| COc1ccc(S(=O)(=O)N(CC(C)C)C[C@@H](O)[C@H](Cc2ccc(NC[C@H]3CCCC[C@H]3c3sc4c(c3C(=O)O)CC(C)(C)CC4)cc2)NC(=O)O[C@H]2CO[C@@]3(C)OCC[C@@H]23)cc1 [Compound I-247] | <0.1% | 0.148 mL/min/kg | 2.25 nM |
| COc1ccc(S(=O)(=O)N(CC(C)C)C[C@@H](O)[C@H](Cc2ccc(NCc3ccccc3C(=O)Nc3sc4c(c3C(=O)O)CC(C)(C)CC4)cc2)NC(=O)O[C@H]2CO[C@@]3(C)OCC[C@@H]23)cc1 [Compound I-396] | <0.1% | 0.0572 mL/min/kg | 2.76 nM |
| CCCCCN(Cc1ccccc1-c1sc2c(c1C(=O)O)CC(C)(C)CC2)c1ccc(CC(NC(=O)OC2COC3(C)OCCC23)C(O)CN(CC(C)C)S(=O)(=O)c2ccc(OC)cc2)cc1 (stereo not drawn) [Compound I-338] | <0.1% | 5.7 mL/min/kg | 4.7 nM |
| COc1ccc(S(=O)(=O)N(CC(C)C)CC(O)C(Cc2ccc(N3CCC(Oc4ccccc4-c4sc5c(c4C(=O)O)CC(C)(C)CC5)C3)cc2)NC(=O)OC2COC3(C)OCCC23)cc1 (stereo not drawn) [Compound I-235] | <0.1% | 4.05 mL/min/kg | 3.56 nM |
| COc1ccc(S(=O)(=O)N(CC(C)C)CC(O)C(Cc2ccc(OCc3ccccc3-c3sc4c(c3C(=O)O)CC(C)(C)CC4(C)C)cc2)NC(=O)OC2COC3(C)OCCC23)cc1 (stereo not drawn) [Compound I-113] | <0.1% | 1.18 mL/min/kg | 1.84 nM |
| COc1ccc(S(=O)(=O)N(CC(C)C)C[C@@H](O)[C@H](Cc2ccc(NC3CN(c4ccccc4-c4sc5c(c4C(=O)O)CC(C)(C)CC5)C3)cc2)NC(=O)O[C@H]2CO[C@@]3(C)OCC[C@@H]23)cc1 [Compound I-228] | <0.1% | 0.144 mL/min/kg | 3.98 nM |
| COc1ccc(S(=O)(=O)N(CC(C)C)CC(O)C(Cc2ccc(OCc3ccccc3-c3oc4c(c3C(=O)O)CC(C)(C)CC4)cc2)NC(=O)OC2COC3(C)OCCC23)cc1 (stereo not drawn) [Compound I-49] | <0.1% | 2.23 mL/min/kg | 2.5 nM |
| COc1ccc(S(=O)(=O)N(CC(C)C)CC(O)C(Cc2ccc(N3CCC(Oc4ccc(-c5sc6c(c5C(=O)O)CC(C)(C)CC6)cc4)C3)cc2)NC(=O)OC2COC3(C)OCCC23)cc1 (stereo not drawn) [Compound I-351] | <0.1% | 3.08 mL/min/kg | 5.09 nM |
| COc1ccc(S(=O)(=O)N(CC(C)C)CC(O)C(Cc2ccc(NCc3ccccc3-c3sc4c(c3C(=O)O)CC(C)(C)CC4(C)C)cc2)NC(=O)OC2COC3(C)OCCC23)cc1 (stereo not drawn) [Compound I-418] | <0.1% | 1.49 mL/min/kg | 2.21 nM |
| COc1ccc(S(=O)(=O)N(CC(C)C)CC(O)C(Cc2ccc(N(C)CC3=C(c4sc5c(c4C(=O)O)CC(C)(C)CC5)CCOC3)cc2)NC(=O)OC2COC3(C)OCCC23)cc1 (stereo not drawn) [Compound I-363] | <0.1% | 3.39 mL/min/kg | 3.36 nM |
| COc1ccc(S(=O)(=O)N(CC(C)C)C[C@@H](O)[C@H](Cc2ccc(OCc3ccccc3-c3sc4c(c3C(=O)O)CCCC4=O)cc2)NC(=O)O[C@H]2CO[C@@]3(C)OCC[C@@H]23)cc1 [Compound I-2] | <0.1% | 5.11 mL/min/kg | 1.05 nM |
| COc1ccc(S(=O)(=O)N(CC(C)C)CC(O)C(Cc2ccc(OCc3ccccc3-c3sc(N(C4CCCCC4)C4CCCCC4)nc3C(=O)O)cc2)NC(=O)OC2COC3(C)OCCC23)cc1 (stereo not drawn) [Compound I-74] | <0.1% | 3.88 mL/min/kg | 1.71 nM |
| COc1ccc(S(=O)(=O)N(CC(C)C)CC(O)C(Cc2ccc(OCc3ncccc3-c3sc4c(c3C(=O)O)CC(C)(C)CC4)cc2)NC(=O)OC2COC3(C)OCCC23)cc1 (stereo not drawn) [Compound I-88] | <0.1% | 2.5 mL/min/kg | 0.86 nM |
| COc1ccc(S(=O)(=O)N(CC(C)C)CC(O)C(Cc2ccc(OC3CCCN(c4ccccc4-c4sc5c(c4C(=O)O)CC(C)(C)CC5)C3)cc2)NC(=O)OC2COC3(C)OCCC23)cc1 (stereo not drawn) [Compound I-102] | <0.1% | 4.24 mL/min/kg | 3.83 nM |
